Tests used:
rat mGluR2 = rat mGluR2 (Rattus norvegicus, UniProt P31421); assay: [3H]LY341495 binding to membranes; design: expressed in transfected cells; host or cells: inducible HEK-293 cell line (membranes)
Protocol: Binding assay was adapted from Johnson et al.[29]. […] Addition of 5–10 μg membrane protein initiated the incubation. After 45 min at room temperature, the incubation was terminated by rapid filtration followed by scintillation counting. Ki’s were calculated using 4-parameter curve fitting.

rat mGluR3 = molecular target: T1, rat mGluR3 (Rattus norvegicus, UniProt P31422); assay: [3H]LY341495 binding to membranes; conditions: Fig. 5C
T1 construct: expressed in transfected cells; host or cells: inducible HEK-293 cell line (membranes)
T1 sequence (P31422 23-879): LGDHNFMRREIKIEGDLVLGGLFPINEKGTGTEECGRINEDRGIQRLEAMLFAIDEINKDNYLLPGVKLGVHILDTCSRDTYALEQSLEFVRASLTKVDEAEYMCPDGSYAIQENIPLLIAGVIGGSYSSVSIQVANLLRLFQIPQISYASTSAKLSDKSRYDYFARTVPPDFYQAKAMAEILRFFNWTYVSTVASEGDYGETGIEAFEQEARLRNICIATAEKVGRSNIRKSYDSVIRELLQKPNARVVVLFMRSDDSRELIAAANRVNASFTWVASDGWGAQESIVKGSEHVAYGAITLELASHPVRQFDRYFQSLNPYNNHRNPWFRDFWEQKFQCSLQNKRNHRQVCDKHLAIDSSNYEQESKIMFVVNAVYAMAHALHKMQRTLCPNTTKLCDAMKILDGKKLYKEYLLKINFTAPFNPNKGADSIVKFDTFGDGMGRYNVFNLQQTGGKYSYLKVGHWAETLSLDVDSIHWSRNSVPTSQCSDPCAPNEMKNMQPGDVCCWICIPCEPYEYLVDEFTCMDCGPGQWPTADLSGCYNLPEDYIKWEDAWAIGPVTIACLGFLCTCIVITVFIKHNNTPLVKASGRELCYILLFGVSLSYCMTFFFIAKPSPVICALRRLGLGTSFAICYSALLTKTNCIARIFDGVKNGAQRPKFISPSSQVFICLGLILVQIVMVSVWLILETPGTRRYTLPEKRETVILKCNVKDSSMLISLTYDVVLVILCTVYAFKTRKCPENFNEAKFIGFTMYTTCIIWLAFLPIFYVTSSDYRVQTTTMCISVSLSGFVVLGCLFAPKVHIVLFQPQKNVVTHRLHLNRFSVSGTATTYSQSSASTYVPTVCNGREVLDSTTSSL
Protocol: Membranes were prepared from an inducible HEK-293 cell line expressing rat mGluR2 or mGluR3. Binding assay was adapted from Johnson et al.[29]. Briefly, [^3H]LY341495 (1.4 nM) was evaluated for binding in the presence or in the absence of orthosteric and allosteric ligands. […] Addition of 5–10 μg membrane protein initiated the incubation. After 45 min at room temperature, the incubation was terminated by rapid filtration followed by scintillation counting. Ki’s were calculated using 4-parameter curve fitting.

native mouse mGluR2 = molecular target: T2, native mouse mGluR2 (Mus musculus, UniProt Q14BI2); assay: [35S]GTPγS binding to mouse cortex; format: biochemical; conditions: glutamate EC20 (1 μM) + SAR218645
T2 construct: SAR218645 acted as a pure mGluR2 PAM at native mouse mGluR2 in the cortex; from tissue; host or cells: mouse cortex membranes
T2 sequence (Q14BI2 19-872): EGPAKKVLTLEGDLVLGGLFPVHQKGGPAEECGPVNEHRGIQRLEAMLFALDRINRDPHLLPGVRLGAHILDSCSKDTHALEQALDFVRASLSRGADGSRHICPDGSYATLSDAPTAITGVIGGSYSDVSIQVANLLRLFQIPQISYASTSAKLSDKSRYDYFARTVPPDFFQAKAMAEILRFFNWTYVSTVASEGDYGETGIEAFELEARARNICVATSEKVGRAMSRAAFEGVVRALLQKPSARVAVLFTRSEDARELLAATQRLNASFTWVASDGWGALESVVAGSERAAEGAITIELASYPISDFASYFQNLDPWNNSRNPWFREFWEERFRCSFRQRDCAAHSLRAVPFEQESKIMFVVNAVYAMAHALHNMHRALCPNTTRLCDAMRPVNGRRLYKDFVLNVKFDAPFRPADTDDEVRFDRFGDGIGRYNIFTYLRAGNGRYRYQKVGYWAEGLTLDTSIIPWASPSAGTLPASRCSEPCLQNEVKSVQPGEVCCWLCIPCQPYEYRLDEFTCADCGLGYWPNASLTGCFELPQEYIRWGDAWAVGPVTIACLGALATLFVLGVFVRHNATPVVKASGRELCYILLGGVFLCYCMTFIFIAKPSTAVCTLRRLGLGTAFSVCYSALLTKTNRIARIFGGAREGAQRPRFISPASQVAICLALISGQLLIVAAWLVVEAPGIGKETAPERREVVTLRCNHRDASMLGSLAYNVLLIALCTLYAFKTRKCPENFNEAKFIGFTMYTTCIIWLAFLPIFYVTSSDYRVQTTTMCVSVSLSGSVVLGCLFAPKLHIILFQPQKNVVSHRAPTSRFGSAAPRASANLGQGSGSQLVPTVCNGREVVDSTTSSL
Protocol: The assay was performed in 96-well filtration plates in 250 μl total volume. […] For termination of the reaction, the plate was filtered and dried prior to adding 50 μl Microscint 40, and counted on the 1450 TopCount Microbeta Counter. EC50 were calculated using 4-parameter curve fitting.

CD-1 mice [1] = assay: LY404039-induced turning behavior; format: in vivo; conditions: LY341495 0.3 mg/kg ip; P < 0.001
Protocol: Under light restraint, a single unilateral intracortical infusion of the selective mGluR2/3 receptor agonist, LY404039, was performed in CD-1 mice (25–30 g at arrival). An injection point was assessed using the eyes and back of the skull as landmarks. Immediately following the application of LY404039, the observation period began. The number of contralateral turns elicited in a 5 min period was recorded. SAR218645 was administered orally 60 min before infusion of LY404039 and the potentiation of the turning behavior was noted. The selective mGluR2/3 receptor antagonist, LY341495, was administered ip 90 min prior to infusion of LY404039. Statistical analysis was performed using Kruskal Wallis test followed by a Wilcoxon two-tailed comparison. Ten animals per group were used.

OF1 mice = assay: Maximal electroshock seizure (MES) test; format: in vivo; conditions: 10 mg/kg ip; vehicle 100
Protocol: SAR218645 (30 mg/kg, po) and the reference anticonvulsant agent, diazepam (10 mg/kg), were administered ip to OF1 mice (12–14 g) 30 min prior to test, respectively. An electrical stimulus (60 Hz, 0.8 ms rectangular pulse, 0.4 s duration, 50 mA) was applied to both corneas. The occurrence of tonic extension of the hindlimbs was noted.

CD-1 mice [2] = assay: DOI-induced head-twitch behaviors; format: in vivo; conditions: po; DOI 1 mg/kg ip
Protocol: Male CD-1 mice weighing 25–30 g at the time of testing were used. Animals were brought into the testing area and allowed at least 30 min to acclimatize. The behavior observation was conducted in a wire test chamber measuring 10 cm^3. SAR218645 or the selective 5-HT2A receptor antagonist, volinanserin, was administered po at various times before administration of DOI. DOI was injected ip at a dose of 1 mg/kg. Five minutes later behavioral observation commenced. A trained (blinded) observer continuously watched the mice for 20 min and noted the number of DOI-induced head twitches during this time. The number of head twitches per group was averaged and SAR218645 or volinanserin plus DOI were compared to DOI alone. Three to eight animals per group were used.

Sprague-Dawley rats = assay: Amphetamine-induced disruption of auditory evoked potentials (AEP); format: in vivo; conditions: 3 mg/kg po; amphetamine 3 mg/kg
Text: All recordings were made using Spike2 software (Cambridge Electronic Design, Cambridge, UK) running on a Windows PC connected to a 1401 interface (Cambridge Electronic Design, Cambridge, UK). EEG recordings were created by connecting the skull plug to an amplifying head stage (AI 1401, Axon Instruments, Union City, CA, USA), via a 6-channel commutator and cable (Plastics One, Roanoke, VA, USA). The signal was then further amplified with a multichannel amplifier (Cyberamp 380, Axon Instruments, Union City, CA, USA). Auditory stimuli were controlled by the interface via an eight channel power amplifier (SA8, Tucker Davis Technologies, Alachua, FL) connected to a patch panel (PP16, Tucker Davis Technologies), which was connected to speakers located above each cage (TDT Magnetic Speakers, Tucker Davis Technologies). During recording sessions, animals were placed inside standard mouse cages (30 × 15 × 15 cm) and rigged so that the six channel cables could connect with the rest of the apparatus outside of the cage.
Male Sprague-Dawley rats (150–180 g at arrival) were anesthetized with 3% isoflurane and their scalp was shaved and prepared for surgery. An incision was made in the scalp and the skin was retracted to allow direct contact with the skull surface. The skull was cleaned with a dry Q-tip and five holes were drilled through the skull. Three holes were drilled at coordinates AP + 1 mm, ML + 1 mm (reference); AP−4 mm, ML ± 4 mm (leads 1 and 2) relative to bregma, while an additional hole was drilled in the frontal area (ground) and another hole was drilled at the midpoint between the anterior and posterior coordinate (anchor). […]
AEP data analysis: Data were collected and analyzed using Spike2 software (CED Software, Cambridge, UK). […] Then a horizontal cursor was placed at the highest and lowest (peak and trough) point of the P1/N1 wave, for both the wave occurring to the first tone (S1) and to the second tone (S2), and the value was recorded into an Excel spreadsheet. […]

Chain of rat mGluR2 (P31421 19-872): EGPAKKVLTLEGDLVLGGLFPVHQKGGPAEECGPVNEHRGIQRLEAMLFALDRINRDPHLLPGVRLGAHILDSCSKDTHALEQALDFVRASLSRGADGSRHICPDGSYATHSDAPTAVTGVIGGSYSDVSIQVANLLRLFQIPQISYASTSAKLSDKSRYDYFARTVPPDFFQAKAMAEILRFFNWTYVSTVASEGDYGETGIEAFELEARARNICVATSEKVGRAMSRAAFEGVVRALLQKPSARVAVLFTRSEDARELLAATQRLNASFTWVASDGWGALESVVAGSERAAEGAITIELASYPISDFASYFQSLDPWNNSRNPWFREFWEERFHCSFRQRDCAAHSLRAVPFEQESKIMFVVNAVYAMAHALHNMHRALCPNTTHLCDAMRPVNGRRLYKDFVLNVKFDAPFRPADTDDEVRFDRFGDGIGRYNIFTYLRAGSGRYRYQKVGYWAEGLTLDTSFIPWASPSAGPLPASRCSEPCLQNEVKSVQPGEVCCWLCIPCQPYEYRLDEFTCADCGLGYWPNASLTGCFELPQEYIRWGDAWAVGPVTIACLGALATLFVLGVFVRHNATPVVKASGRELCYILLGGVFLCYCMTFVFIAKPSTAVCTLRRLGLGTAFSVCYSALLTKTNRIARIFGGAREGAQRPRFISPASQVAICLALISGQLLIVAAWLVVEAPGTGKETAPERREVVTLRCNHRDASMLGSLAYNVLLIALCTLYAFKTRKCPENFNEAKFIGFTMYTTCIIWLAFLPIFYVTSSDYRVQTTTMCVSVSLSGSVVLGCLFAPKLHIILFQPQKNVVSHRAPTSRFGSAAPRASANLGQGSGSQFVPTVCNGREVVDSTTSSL

SMILES: N[C@@]1(C(=O)O)CS(=O)(=O)[C@H]2[C@H](C(=O)O)[C@H]21 [LY404039, (-)-(1R,4S,5S,6S)-4-amino-2-sulfonylbicyclo[3.1.0]hexane-4,6-dicarboxylic acid, reference compound]
- Ki (rat mGluR2; Fig. 5A): 0.462 µM
- Ki (rat mGluR3): 0.901 µM

SMILES: N[C@@H](CCC(=O)O)C(=O)O [Glutamate, L-glutamatic acid, reference compound]
- maximal binding, glutamate alone (rat mGluR2; absence of SAR218645, Fig. 5B): 108%
- Ki (rat mGluR3): 0.4 µM

SMILES: N[C@](CC1c2ccccc2Oc2ccccc21)(C(=O)O)[C@H]1C[C@@H]1C(=O)O [LY341495, reference compound]
- antagonism of the SAR218645 potentiation (native mouse mGluR2): blocked
- antagonism of the effect of SAR218645 (10 mg/kg) on turning (CD-1 mice [1]): blocked

SMILES: CN1C(=O)CN=C(c2ccccc2)c2cc(Cl)ccc21 [Diazepam, reference compound]
- Tonic seizures (OF1 mice): 0%

SMILES: COc1cccc([C@H](O)C2CCN(CCc3ccc(F)cc3)CC2)c1OC [volinanserin, reference compound]
- effect on DOI-induced head twitches (reference) (CD-1 mice [2]): inhibited

SMILES: O=C(Oc1ccc(Br)cc1)N1CCN2CCC1CC2 [SSR180711, reference compound]
- effect on amphetamine-disrupted auditory gating (S2/S1 ratio) (Sprague-Dawley rats): attenuated amphetamine-induced disrupted gating

Source: article PMC5062470, “The mGluR2 positive allosteric modulator, SAR218645, improves memory and attention deficits in translational models of cognitive symptoms associated with schizophrenia” (Scientific Reports, 2016)
